Measured values taken from article PMC11579541, “In vitro, in vivo, and in silico approaches for evaluating the preclinical DMPK profiles of ammoxetine, a novel chiral serotonin and norepinephrine reuptake inhibitor” (Frontiers in Pharmacology, 2024).
Read-outs that look alike come from different tables or passages of the source.

Assay: PK studies in beagle dogs
Type: in vivo
Conditions: for AUC(0-inf) / AUC(0-t) / MRT last / MRT inf / Tmax / half-life / Cmax / CL/F / Vd/F: beagle; for MRT last: read-out: MRT(0-t); for MRT inf: read-out: MRT(0-∞); for half-life: read-out: t1/2z (converted); for CL/F: read-out: CLz/F (converted); for Vd/F: read-out: Vz/F
Method: For the PK studies in rats and dogs, a total of 18 SD rats and 15 male beagle dogs were randomly divided into three groups, with six rats or five dogs per group, respectively. Prior to the experiments, all animals underwent a 12-h fasting period, while having free access to water. The animals were administered single oral doses of ammoxetine in three different dose levels: 8 mg/kg, 20 mg/kg, and 50 mg/kg for rats, and 2 mg/kg, 5 mg/kg, and 12.5 mg/kg for dogs, representing low, medium, and high doses. Serial blood samples were collected from the rats at 0, 2, 5, 15, and 30 min, as well as 1, 2, 4, 6, 8, 12, and 24 h post-dosing. For the dogs, blood samples were collected at 0, 5, 15, 30, and 45 min, as well as 1, 2, 4, 6, 8, 12, and 24 h post-dosing. Approximately 0.3 mL of blood was collected from the rats, while 2 mL of blood was collected from the dogs. The blood samples were collected into heparinized tubes. Following centrifugation, plasma samples were obtained and stored at −30°C until further analysis.
For the absolute bioavailability (F, %) study in dogs, the dogs initially received a single gastric gavage of a low dose (2 mg/kg) of ammoxetine, followed by a 1-week washout period. After the washout, the same dose of ammoxetine was administered intravenously (i.v.). To assess the effects of nonfasting on ammoxetine PK, dogs that received a medium dose (5 mg/kg) of ammoxetine via gastric gavage underwent a radical washout period of 1 week. Subsequently, they were administered the same dose of ammoxetine via gastric gavage under nonfasting conditions. To compare sex differences in ammoxetine PK, an additional five female beagle dogs were administered a medium dose (5 mg/kg) of ammoxetine via gastric gavage after a 12-h overnight fast. Blood samples (2 mL) were collected from these dogs into heparinized tubes at predose and at specified time points: 5, 15, 30, and 45 min, as well as 1, 2, 4, 6, 8, 12, and 24 h postdose. For the repeat-dose study, after completing blood collection during the initial administration, dogs receiving a single gastric gavage of a medium dose (5 mg/kg) of ammoxetine under fasting conditions were subsequently orally dosed with seven repeat doses of ammoxetine (5 mg/kg) every 12 h. Trough blood samples were collected before the fourth to last administration to ensure steady-state blood concentrations (C ss ) were achieved. Approximately 2 mL of blood was collected at specified time points after the last dose and transferred into heparinized tubes. All blood samples were then centrifuged at 4,000 r/min for 20 min to obtain plasma samples, which were stored at −30°C until analysis.
To determine the concentration of ammoxetine, 100 μL of L-phencynonate (IS, 50 ng/mL) and 300 μL of methanol were added to 100 μL of plasma samples from rats or dogs. After thorough vortexing, the mixture was centrifuged at 13,800×g for 10 min. The supernatants were then subjected to analysis using LC-MS-MS methods. PK parameters were calculated using DAS (Drug And Statistics for Windows) version 2.0, developed by the Shanghai University of Traditional Chinese Medicine, Shanghai, China. The F was determined by comparing the plasma area under the concentration-time curve (AUC) values after oral (p.o.) and intravenous (i.v.) administration of ammoxetine. F was calculated using the formula: F=AUCp.o./AUCi.v.×100% . Statistical analyses were performed using OriginPro 8.6 software. Paired sample or student’s t-test, as well as one-way ANOVA, were employed to compare the means of two or three groups, with a significance level set at p < 0.05.

[1] = beagle dogs, 2 mg/kg p.o. vs i.v.
[2] = beagle dogs, 5 mg/kg oral every 12 h, last time of multiple administrations
[3] = dog, plasma, po, 5 mg/kg, beagle dogs, 5 mg/kg oral every 12 h, last time of multiple administrations
[4] = female, dog, plasma, po, 5 mg/kg, female beagle dogs, 5 mg/kg oral, fasted
[5] = male, dog, plasma, iv, 2 mg/kg, beagle dogs, 2 mg/kg intravenous administration
[6] = male, dog, plasma, po, 2 mg/kg, beagle dogs, 2 mg/kg single oral dose
[7] = male, dog, plasma, po, 5 mg/kg, beagle dogs, 5 mg/kg oral every 12 h, last time of multiple administrations
[8] = male, dog, plasma, po, 5 mg/kg, beagle dogs, 5 mg/kg oral, fed (nonfasting)
[9] = male, dog, plasma, po, 5 mg/kg, male beagle dogs, 5 mg/kg single oral dose, fasted (first dose)
[10] = male, dog, plasma, po, 12.5 mg/kg, beagle dogs, 12.5 mg/kg single oral dose

- F (absolute bioavailability) based on AUC(0-t) [1]: 41.76 ± 9.25%
- F (absolute bioavailability) based on AUC(0-∞) [1]: 41.94 ± 9.31%
- trough concentration (beagle dogs, 5 mg/kg oral every 12 h, before the 4th dose): 84.17 ± 50.58 ng/mL
- trough concentration (beagle dogs, 5 mg/kg oral every 12 h, before the 5th dose): 64.21 ± 31.71 ng/mL
- trough concentration (beagle dogs, 5 mg/kg oral every 12 h, before the 6th dose): 86.13 ± 43.95 ng/mL
- trough concentration (beagle dogs, 5 mg/kg oral every 12 h, before the 7th dose): 95.71 ± 39.83 ng/mL
- Cav [2]: 337.19 ± 112.27 ng/mL
- Cmin [2]: 95.71 ± 39.83 ng/mL
- DF (degree of fluctuation) [2]: 2.00 ± 0.45
- AUC(0-inf) [3]: 5000 ng·h/mL
- AUC(0-t) [3]: 4900 ng·h/mL
- MRT last [3]: 5.76 ± 0.6 h
- MRT inf [3]: 6.21 ± 0.73 h
- Tmax (dog, plasma, po, 5 mg/kg, beagle dogs, 5 mg/kg oral every 12 h, last time of multiple administrations, read-out: Tmax): 1.1 ± 0.52 h
- half-life [3]: 4.13 ± 0.85 h
- AUC (dog, plasma, beagle dogs, 5 mg/kg oral every 12 h, last time of multiple administrations): 4050 ng·h/mL
- AUC(0-inf) [4]: 1660 ng·h/mL
- AUC(0-t) [4]: 1640 ng·h/mL
- Cmax [4]: 476 ± 284 ng/mL
- CL/F [4]: 71.5 mL/min/kg
- MRT last [4]: 3.74 ± 0.78 h
- MRT inf [4]: 3.88 ± 0.83 h
- Tmax (female, dog, plasma, po, 5 mg/kg, female beagle dogs, 5 mg/kg oral, fasted, read-out: Tmax): 0.85 ± 0.22 h
- Vd/F [4]: 20.9 ± 12.3 L/kg
- half-life [4]: 3.45 ± 0.4 h
- AUC(0-inf) [5]: 1010 ng·h/mL
- AUC(0-t) [5]: 1010 ng·h/mL
- Cmax [5]: 649 ± 119 ng/mL
- MRT last [5]: 2.3 ± 0.29 h
- MRT inf [5]: 2.33 ± 0.29 h
- Tmax (male, dog, plasma, iv, 2 mg/kg, beagle dogs, 2 mg/kg intravenous administration, read-out: Tmax): 0.05 ± 0.03 h
- half-life [5]: 2.72 ± 0.51 h
- AUC(0-inf) [6]: 420 ± 108 ng·h/mL
- AUC(0-t) [6]: 418 ± 108 ng·h/mL
- Cmax [6]: 165 ± 49.5 ng/mL
- CL/F [6]: 83.5 mL/min/kg
- MRT last [6]: 2.94 ± 0.55 h
- MRT inf [6]: 3.08 ± 0.69 h
- Tmax (male, dog, plasma, po, 2 mg/kg, beagle dogs, 2 mg/kg single oral dose, read-out: Tmax): 0.75 ± 0.18 h
- Vd/F [6]: 24.9 ± 13 L/kg
- half-life [6]: 3.4 ± 1.28 h
- Cmax [7]: 761 ± 254 ng/mL
- CL/F [7]: 18.7 mL/min/kg
- Vd/F [7]: 6.63 ± 2.77 L/kg
- AUC(0-inf) [8]: 1960 ± 742 ng·h/mL
- AUC(0-t) [8]: 1950 ± 738 ng·h/mL
- Cmax [8]: 522 ± 234 ng/mL
- CL/F [8]: 49.3 mL/min/kg
- MRT last [8]: 4.14 ± 0.54 h
- MRT inf [8]: 4.28 ± 0.59 h
- Tmax (male, dog, plasma, po, 5 mg/kg, beagle dogs, 5 mg/kg oral, fed (nonfasting), read-out: Tmax): 0.8 ± 0.21 h
- Vd/F [8]: 14 ± 6.8 L/kg
- half-life [8]: 3.28 ± 0.28 h
- AUC(0-inf) [9]: 1980 ± 533 ng·h/mL
- AUC(0-t) [9]: 1960 ± 527 ng·h/mL
- Cmax [9]: 524 ± 214 ng/mL
- CL/F [9]: 45.2 mL/min/kg
- MRT last [9]: 4.4 ± 0.65 h
- MRT inf [9]: 4.7 ± 0.85 h
- Tmax (male, dog, plasma, po, 5 mg/kg, male beagle dogs, 5 mg/kg single oral dose, fasted (first dose), read-out: Tmax): 0.8 ± 0.11 h
- Vd/F [9]: 14.9 ± 5.08 L/kg
- half-life [9]: 3.81 ± 0.52 h
- AUC(0-inf) [10]: 8400 ng·h/mL
- AUC(0-t) [10]: 7900 ng·h/mL
- Cmax [10]: 1470 ng/mL
- CL/F [10]: 25.8 mL/min/kg
- MRT last [10]: 5.43 ± 1.18 h
- MRT inf [10]: 7.53 ± 4.7 h
- Tmax (male, dog, plasma, po, 12.5 mg/kg, beagle dogs, 12.5 mg/kg single oral dose, read-out: Tmax): 1.4 ± 0.6 h
- Vd/F [10]: 13.9 ± 11 L/kg
- half-life [10]: 6.2 ± 4.43 h
- Tmax (male, dog, plasma, po, 12.5 mg/kg, beagle dogs, oral 2, 5 and 12.5 mg/kg, read-out: Tmax values, range): 0.75 to 1.4 h
- bioavailability (male, dog, plasma, oral, beagle dogs, 2 mg/kg, approximate value, read-out: absolute bioavailability): ~42%
- clearance (male, dog, plasma, beagle dogs, 2 mg/kg intravenous administration, total clearance, read-out: CLz (converted)): 34 mL/min/kg
- Vd (male, dog, plasma, beagle dogs, 2 mg/kg intravenous administration, volume of distribution, read-out: Vz): 7.82 ± 1.2 L/kg
Structure (SMILES): CNCC[C@H](Oc1cccc2c1OCO2)c1cccs1 [ammoxetine]
